Test results reported in PubChem BioAssay (NCI).
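Where inhibition never reached the appropriate level, the endpoint shown equals the highest concentration tested. Otherwise, values were interpolated linearly from a five-concentration, 48-hour dose response in 96-well plates. TGI denotes the concentration required for complete inhibition of growth.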

test system: SNB-19 CNS; assay: NCI tumour cell line growth inhibition, 48 h

Row | SMILES | TGI [µM]
1 | O=C1Nc2cccc(Cl)c2/C1=C\c1c(Cl)nc2n1CCS2 | > 100
2 | O=c1oc2ccc3ccccc3c2cc1-c1nc2ccccc2s1 | > 26.9
3 | COC[C@@H](N=CC(C)(C)C)C(C)C | > 100
4 | C=CCc1cccc2cc(C(=O)NCc3ccccc3)c(=N)oc12 | > 100
5 | COC(=O)c1ccc(/C=C/c2cc(O)ccc2O)cc1 | > 100
6 | O=C(/C=C/c1ccccc1)CCC1C(=O)c2ccccc2C1=O | > 100
7 | Brc1ccc2[nH]cc(-c3csc(-c4c[nH]c5ccccc45)n3)c2c1 | 9.6
8 | COc1cc(OC)cc(Oc2nc3ccccc3nc2C(F)(F)F)c1 | > 100
9 | O=[N+]([O-])c1ccc2[nH]c(=S)[nH]c(=S)c2c1 | > 100

test system: MDA-N; assay: NCI tumour cell line growth inhibition, 48 h

Row | SMILES | TGI [µM]
10 | O=C1Nc2cccc(Cl)c2/C1=C\c1c(Cl)nc2n1CCS2 | > 100
11 | O=c1oc2ccc3ccccc3c2cc1-c1nc2ccccc2s1 | > 100
12 | COC[C@@H](N=CC(C)(C)C)C(C)C | > 100
13 | C=CCc1cccc2cc(C(=O)NCc3ccccc3)c(=N)oc12 | > 100
14 | COC(=O)c1ccc(/C=C/c2cc(O)ccc2O)cc1 | > 46.7
15 | O=C(/C=C/c1ccccc1)CCC1C(=O)c2ccccc2C1=O | > 100
16 | Brc1ccc2[nH]cc(-c3csc(-c4c[nH]c5ccccc45)n3)c2c1 | 7.65
17 | COc1cc(OC)cc(Oc2nc3ccccc3nc2C(F)(F)F)c1 | > 100
18 | O=[N+]([O-])c1ccc2[nH]c(=S)[nH]c(=S)c2c1 | > 100

test system: T-47D breast; assay: NCI tumour cell line growth inhibition, 48 h

Row | SMILES | TGI [µM]
19 | O=C1Nc2cccc(Cl)c2/C1=C\c1c(Cl)nc2n1CCS2 | > 100
20 | O=c1oc2ccc3ccccc3c2cc1-c1nc2ccccc2s1 | > 100
21 | COC[C@@H](N=CC(C)(C)C)C(C)C | > 100
22 | C=CCc1cccc2cc(C(=O)NCc3ccccc3)c(=N)oc12 | > 100
23 | COC(=O)c1ccc(/C=C/c2cc(O)ccc2O)cc1 | 5.32
24 | O=C(/C=C/c1ccccc1)CCC1C(=O)c2ccccc2C1=O | > 100
25 | Brc1ccc2[nH]cc(-c3csc(-c4c[nH]c5ccccc45)n3)c2c1 | 26.9
26 | COc1cc(OC)cc(Oc2nc3ccccc3nc2C(F)(F)F)c1 | > 100
27 | O=[N+]([O-])c1ccc2[nH]c(=S)[nH]c(=S)c2c1 | > 100

test system: K-562 leukemia; assay: NCI tumour cell line growth inhibition, 48 h

Row | SMILES | TGI [µM]
28 | O=C1Nc2cccc(Cl)c2/C1=C\c1c(Cl)nc2n1CCS2 | > 100
29 | O=c1oc2ccc3ccccc3c2cc1-c1nc2ccccc2s1 | > 77.6
30 | COC[C@@H](N=CC(C)(C)C)C(C)C | > 100
31 | C=CCc1cccc2cc(C(=O)NCc3ccccc3)c(=N)oc12 | > 100
32 | COC(=O)c1ccc(/C=C/c2cc(O)ccc2O)cc1 | 4.38
33 | O=C(/C=C/c1ccccc1)CCC1C(=O)c2ccccc2C1=O | > 100
34 | Brc1ccc2[nH]cc(-c3csc(-c4c[nH]c5ccccc45)n3)c2c1 | > 20.8
35 | COc1cc(OC)cc(Oc2nc3ccccc3nc2C(F)(F)F)c1 | > 100
36 | O=[N+]([O-])c1ccc2[nH]c(=S)[nH]c(=S)c2c1 | > 100

test system: COLO 205 colon; assay: NCI tumour cell line growth inhibition, 48 h

Row | SMILES | TGI [µM]
37 | O=C1Nc2cccc(Cl)c2/C1=C\c1c(Cl)nc2n1CCS2 | > 100
38 | O=c1oc2ccc3ccccc3c2cc1-c1nc2ccccc2s1 | > 100
39 | COC[C@@H](N=CC(C)(C)C)C(C)C | > 100
40 | C=CCc1cccc2cc(C(=O)NCc3ccccc3)c(=N)oc12 | > 100
41 | COC(=O)c1ccc(/C=C/c2cc(O)ccc2O)cc1 | 22.8
42 | O=C(/C=C/c1ccccc1)CCC1C(=O)c2ccccc2C1=O | > 100
43 | Brc1ccc2[nH]cc(-c3csc(-c4c[nH]c5ccccc45)n3)c2c1 | 7.72
44 | COc1cc(OC)cc(Oc2nc3ccccc3nc2C(F)(F)F)c1 | > 100
45 | O=[N+]([O-])c1ccc2[nH]c(=S)[nH]c(=S)c2c1 | > 100

test system: MCF7 breast; assay: NCI tumour cell line growth inhibition, 48 h

Row | SMILES | TGI [µM]
46 | O=C1Nc2cccc(Cl)c2/C1=C\c1c(Cl)nc2n1CCS2 | > 100
47 | O=c1oc2ccc3ccccc3c2cc1-c1nc2ccccc2s1 | > 24.4
48 | COC[C@@H](N=CC(C)(C)C)C(C)C | > 100
49 | C=CCc1cccc2cc(C(=O)NCc3ccccc3)c(=N)oc12 | > 100
50 | COC(=O)c1ccc(/C=C/c2cc(O)ccc2O)cc1 | 21.8
51 | O=C(/C=C/c1ccccc1)CCC1C(=O)c2ccccc2C1=O | > 100
52 | Brc1ccc2[nH]cc(-c3csc(-c4c[nH]c5ccccc45)n3)c2c1 | > 100
53 | COc1cc(OC)cc(Oc2nc3ccccc3nc2C(F)(F)F)c1 | > 100
54 | O=[N+]([O-])c1ccc2[nH]c(=S)[nH]c(=S)c2c1 | > 100

test system: UACC-62 melanoma; assay: NCI tumour cell line growth inhibition, 48 h

Row | SMILES | TGI [µM]
55 | O=C1Nc2cccc(Cl)c2/C1=C\c1c(Cl)nc2n1CCS2 | > 100
56 | O=c1oc2ccc3ccccc3c2cc1-c1nc2ccccc2s1 | > 100
57 | COC[C@@H](N=CC(C)(C)C)C(C)C | > 100
58 | C=CCc1cccc2cc(C(=O)NCc3ccccc3)c(=N)oc12 | > 100
59 | COC(=O)c1ccc(/C=C/c2cc(O)ccc2O)cc1 | 17.4
60 | O=C(/C=C/c1ccccc1)CCC1C(=O)c2ccccc2C1=O | > 100
61 | Brc1ccc2[nH]cc(-c3csc(-c4c[nH]c5ccccc45)n3)c2c1 | > 22.5
62 | COc1cc(OC)cc(Oc2nc3ccccc3nc2C(F)(F)F)c1 | > 100
63 | O=[N+]([O-])c1ccc2[nH]c(=S)[nH]c(=S)c2c1 | > 100

test system: HOP-92 NSCLC; assay: NCI tumour cell line growth inhibition, 48 h

Row | SMILES | TGI [µM]
64 | O=C1Nc2cccc(Cl)c2/C1=C\c1c(Cl)nc2n1CCS2 | > 100
65 | O=c1oc2ccc3ccccc3c2cc1-c1nc2ccccc2s1 | > 100
66 | COC[C@@H](N=CC(C)(C)C)C(C)C | > 100
67 | C=CCc1cccc2cc(C(=O)NCc3ccccc3)c(=N)oc12 | > 100
68 | COC(=O)c1ccc(/C=C/c2cc(O)ccc2O)cc1 | 7.69
69 | O=C(/C=C/c1ccccc1)CCC1C(=O)c2ccccc2C1=O | > 100
70 | Brc1ccc2[nH]cc(-c3csc(-c4c[nH]c5ccccc45)n3)c2c1 | 7.68
71 | COc1cc(OC)cc(Oc2nc3ccccc3nc2C(F)(F)F)c1 | > 100
72 | O=[N+]([O-])c1ccc2[nH]c(=S)[nH]c(=S)c2c1 | > 100

test system: HL-60(TB) leukemia; assay: NCI tumour cell line growth inhibition, 48 h

Row | SMILES | TGI [µM]
73 | O=C1Nc2cccc(Cl)c2/C1=C\c1c(Cl)nc2n1CCS2 | > 100
74 | O=c1oc2ccc3ccccc3c2cc1-c1nc2ccccc2s1 | > 100
75 | COC[C@@H](N=CC(C)(C)C)C(C)C | > 100
76 | C=CCc1cccc2cc(C(=O)NCc3ccccc3)c(=N)oc12 | > 100
77 | COC(=O)c1ccc(/C=C/c2cc(O)ccc2O)cc1 | 1.06
78 | O=C(/C=C/c1ccccc1)CCC1C(=O)c2ccccc2C1=O | > 100
79 | Brc1ccc2[nH]cc(-c3csc(-c4c[nH]c5ccccc45)n3)c2c1 | 14.2
80 | COc1cc(OC)cc(Oc2nc3ccccc3nc2C(F)(F)F)c1 | > 100
81 | O=[N+]([O-])c1ccc2[nH]c(=S)[nH]c(=S)c2c1 | > 100

test system: 786-0 renal; assay: NCI tumour cell line growth inhibition, 48 h

Row | SMILES | TGI [µM]
82 | O=C1Nc2cccc(Cl)c2/C1=C\c1c(Cl)nc2n1CCS2 | > 100
83 | O=c1oc2ccc3ccccc3c2cc1-c1nc2ccccc2s1 | > 100
84 | COC[C@@H](N=CC(C)(C)C)C(C)C | > 100
85 | C=CCc1cccc2cc(C(=O)NCc3ccccc3)c(=N)oc12 | 91.4
86 | COC(=O)c1ccc(/C=C/c2cc(O)ccc2O)cc1 | 16.9
87 | O=C(/C=C/c1ccccc1)CCC1C(=O)c2ccccc2C1=O | > 100
88 | Brc1ccc2[nH]cc(-c3csc(-c4c[nH]c5ccccc45)n3)c2c1 | 5.27
89 | COc1cc(OC)cc(Oc2nc3ccccc3nc2C(F)(F)F)c1 | > 100
90 | O=[N+]([O-])c1ccc2[nH]c(=S)[nH]c(=S)c2c1 | > 100
